Results on one molecule are retold here after patent US4546079A, “Streptomyces species and process for producing antibiotic” (Bayer Aktiengesellschaft, priority 1981, dated 1985).

*1 amine or outer side, *2 acyl side, *3 side chain or, on linkers, in order; H or OH if unused. Where a SMILES comes first, the peptide text is derived from it. [ ]: non-standard residue; d: D form. ξ: configuration not given here. X1 = Cn1c(=NC(N)=O)ccn(C2SC(C(O)C(N[*:1])C(=O)[*:2])C(O)C2O)c1=O; ξOrn(N(OH)Ac) = CC(=O)N(O)CCCC(N)C(=O)O; ξS = NC(CO)C(=O)O Bounds are passed on as bounds.

One series has as its system E. coli 205 Kn. Put plainly: animal test (mice), ED100. It is filed as in vivo. To be noted: Escherichia coli, sc, i.p. infection, s.c. treatment, all animals survive, read-out: ED100 after intra-peritoneal infection and subcutaneous treatment. On the procedure: (§1) | ED100 after intra-peritoneal | infection and subcutaneous The animals were infected with a quantity of bacteria, which quantity led to the death of the control animals during the course of 24 hours. The ED100 was the dose which allowed all infected and treated animals to survive.

For another series, the system named is E. coli Neumann. The experiment in a line: animal test (mice), ED100. In kind it is in vivo. The conditions noted are these: Escherichia coli, sc, i.p. infection, s.c. treatment, all animals survive, read-out: ED100 after intra-peritoneal infection and subcutaneous treatment. On the procedure:
as §1

The subject of another series is Klebsiella pneumoniae 63. The experiment in a line: animal test (mice), ED100. It is filed as in vivo. To be noted: sc, i.p. infection, s.c. treatment, all animals survive, read-out: ED100 after intra-peritoneal infection and subcutaneous treatment. On the procedure: as §1
Another series deals with Staphylococcus aureus. The experiment in a line: animal test (mice), ED100. The conditions noted are these: sc, i.p. infection, s.c. treatment, all animals survive, read-out: ED100 after intra-peritoneal infection and subcutaneous treatment. It is filed as in vivo. On the procedure: as §1
Another series deals with E. coli Newmann. Put plainly: ED100 (complete cure) in the white mouse. The conditions noted are these: Escherichia coli, sc, 0.5 h, once, 30 minutes after infection, subcutaneously. It is filed as in vivo. On the procedure: An ED100 (complete cure) is found in vivo for the white mouse, at 3 mg of antibiotic/kg of body weight, in the case of infection with E. coli […]; therapy: application once, 30 minutes after infection, subcutaneously.

Another series relates to E. coli 14. The experiment in a line: agar dilution test (NCCLS), in vitro activity. It is filed as cell-based. (In agar dilution, organisms are placed on agar that contains the substance at set levels.)
The next series has as its system E. coli C 165. The experiment in a line: agar dilution test (NCCLS), in vitro activity. In kind it is cell-based.
For series [1] the following is noted: pH 7.
A short description of a further series: physchem. The conditions noted are these: organic solvent or mixture.

The solubility is how much of the substance goes into solution per volume. Consider `CC(=O)N(O)CCCC(N)C(=O)NC(CCCN(O)C(C)=O)C(=O)NC(CCCN(O)C(C)=O)C(=O)NC(CO)C(=O)NC(C(=O)O)C(O)C1SC(n2ccc(=NC(N)=O)n(C)c2=O)C(O)C1O` (stereo not drawn) [BAY i 3265 component B] (H-[ξOrn(N(OH)Ac)][ξOrn(N(OH)Ac)][ξOrn(N(OH)Ac)][ξS][X1]-OH), for which the ED100 with E. coli 205 Kn turned out to be 0.1 mg/kg; in the series on E. coli Neumann, 0.5 mg/kg; with Klebsiella pneumoniae 63, 0.2 mg/kg; in the series with Staphylococcus aureus it was 0.6 mg/kg; in the series with E. coli Newmann it was 3 mg/kg. Also, the in vitro activity result in the series with E. coli 14 and in the series on E. coli C 165 was “in vitro activity is found” each time. For the same molecule, the solubility in water entry in [1] is listed as “unlimited solubility”. In addition, the solubility in “physchem” (chloroform) was < 100 µg/mL; in the series “physchem” (dimethylformamide) it was < 10000 µg/mL; in the series “physchem” (dimethylsulphoxide), < 10000 µg/mL; in “physchem” (ether), < 100 µg/mL; in the series “physchem” (ethyl acetate) it was < 100 µg/mL; in the series “physchem” (methanol), < 10000 µg/mL. Also, the solubility in the series “physchem” (petroleum ether) is < 100 µg/mL.
